These results are taken from patent US8389573B2, “Glycyrrhetinic acid derivatives” (Wellington Laboratories Inc., priority 2006, dated 2013).

As a reminder, the melting point is the temperature, or range, at which the solid turns liquid.

For one series, the system named is PSA promoter. As to the kind of experiment: PSA-luc promoter luciferase assay in LNCaP cells. It counts as cell-based. The note with it: basal. The text has this: Transfections: The Gal4 reporter construct containing 5× Gal4 response elements (pGal4) was kindly provided by Dr. Marty Mayo (University of North Carolina, Chapel Hill, N.C.). The Gal4 DBD-PPARγ construct was a gift of Dr. Jennifer L. Oberfield (Glaxo Wellcome Research and Development, Research Triangle Park, N.C.). The PPRE-luc construct contains three tandem PPREs with a minimal TATA sequence linked to the luciferase gene in pGL2. The AR-luc construct containing the −5400 to +580 region of the androgen receptor promoter was provided by Dr. Donald J. Tindall (Mayo Clinic, Rochester, Minn.), and the PSA-luc construct containing the 5.8-kilobase region of the PSA promoter was provided by Dr. Hong-Wu Cheng (University of California, Davis, Calif.). LNCaP cells (1×10^5) were seeded in 12-well plates in DMEM/Ham's F-12 media supplemented with 2.5% charcoal-stripped FBS and grown overnight. Transient transfections were performed using Lipofectamine reagent (Invitrogen) according to the protocol provided by the manufacturer. Transfection studies were performed using 0.4 μg of Gal4Luc, 0.04 μg of β-galactosidase, 0.04 μg of Gal4 DBD-PPARγ, 0.4 μg of AR-luc, and 0.3 μg of PSA-luc. […] A Lumicount luminometer (PerkinElmer Life and Analytical Sciences) was used to quantify luciferase and β-galactosidase activities, and the luciferase activities were normalized to β-galactosidase activity.

Series [1] relates to Sp protein levels in RKO cells. As to the kind of experiment: Sp protein expression (gel) in RKO cells. It counts as cell-based.
Series [2] has as its system Panc28 pancreatic cancer cells. As to the kind of experiment: Growth inhibition in Panc28 pancreatic cancer cells. The series is classed as cell-based. The following applies: Pancreatic cancer cell.
A further series relates to SW480 cells. The series is described as follows: Western blot analysis in SW480 cells. It counts as cell-based, human. How it is done: SW-480 and HT-29 (3×10^5) cells were seeded in six-well plates in DMEM/Ham's F-12 media containing 2.5% charcoal-stripped FBS for 24 h and then treated with either the vehicle (DMSO) or the indicated compounds. Whole-cell lysates were obtained using high-salt buffer [50 mM HEPES, 500 mM NaCl, 1.5 mM MgCl2, 1 mM EGTA, 10% glycerol, and 1% Triton X-100, pH 7.5, and 5 μl/ml Protease Inhibitor Cocktail (Sigma-Aldrich)]. Protein samples were incubated at 100° C. for 2 min, separated on 10% SDS-PAGE at 120 V for 3 to 4 h in 1× running buffer (25 mM Tris-base, 192 mM glycine, and 0.1% SDS, pH 8.3), and transferred to polyvinylidene difluoride membrane (PVDF; Bio-Rad, Hercules, Calif.) at […] for 16 h at 4° C. in 1× transfer buffer (48 mM Tris-HCl, 39 mM glycine, and 0.025% SDS). The PVDF membrane was blocked in 5% TBST-Blotto (10 mM Tris-HCl, 150 mM NaCl, pH 8.0, 0.05% Triton X-100, and 5% nonfat dry milk) with gentle shaking for 30 min and was incubated in fresh 5% TBST-Blotto with 1:1000 (for caveolin-1, p27, p21, cyclin D1, Grp78), 1:500 (for KLF4, NAG-1), 1:250 (for PARP), and 1:5000 (for β-actin) primary antibody overnight with gentle shaking at 4° C. After washing with TBST for 10 min, the PVDF membrane was incubated with secondary antibody (1:5000) in 5% TBST-Blotto for 90 min. The membrane was washed with TBST for 10 min, incubated with 10 ml of chemiluminescence substrate (PerkinElmer) for 1.0 min, and exposed to Kodak X-OMAT AR autoradiography film (Eastman Kodak, Rochester, N.Y.).
For orientation: A western blot detects proteins with antibodies after separation by electrophoresis.

The next series concerns SW480 colon cancer cells. As to the kind of experiment: Cell proliferation assay in SW480 cells. It counts as cell-based. The following applies: Homo sapiens, read-out: IC50, growth inhibition / cell proliferation. How it is done:
Human colon carcinoma cell lines SW480 and HT29 were provided by Dr. Stan Hamilton, M.D. Anderson Cancer Center (Houston, Tex.); SW-480 and HT-29 cells were maintained in Dulbecco's modified Eagle's medium nutrient mixture with Ham's F-12 (DMEM/Ham's F-12; Sigma-Aldrich, St. Louis, Mo.) with phenol red supplemented with 0.22% sodium bicarbonate, 0.011% sodium pyruvate, and 5% fetal bovine serum and 10 ml/l 100× antibiotic antimycotic solution (Sigma-Aldrich). Cells were maintained at 37° C. in the presence of 5% CO2.
SW480 and HT 29 Cells (2×10^4) were plated in 12-well plates, and media were replaced the next day with DMEM/Ham's F-12 media containing 2.5% charcoal-stripped FBS and either vehicle (DMSO) or the indicated ligand and dissolved in DMSO. Fresh media and compounds were added every 48 h. Cells were counted at the indicated times using a Coulter Z1 cell counter. Each experiment was done in triplicate, and results are expressed as means±S.E. for each determination

The subject of a further series is PPARγ. As to the kind of experiment: PPARγ-GAL4/pGAL4 transfection and luciferase assay in HT-29 cells. The series is classed as cell-based. The protocol:
The Gal4 reporter containing 5× Gal4 response elements (pGal4) was kindly provided by Dr. Marty Mayo (University of North Carolina, Chapel Hill, N.C.). Gal4 DBD-PPARγ construct (gPPARγ) was a gift of Dr. Jennifer L. Oberfield (GlaxoSmithKline Research and Development, Research Triangle Park, N.C.). PPRE3-luc construct contains three tandem PPREs with a minimal TATA sequence in pGL2.
Colon Cancer cell lines SW480 and HT29 (1×10^5 cells/well) were plated in 12-well plates in DMEM/Ham's F-12 media supplemented with 2.5% charcoal-stripped FBS. After 16 h, various amounts of DNA [i.e., Gal4Luc (0.4 μg), β-Gal (0.04 μg), Gal4PPAR and PPRE3-Luc (0.04 μg)] were transfected using LipofectAMINE™ reagent (Invitrogen) following the manufacturer's protocol. Five hours after transfection, the transfection mix was replaced with complete media containing either vehicle (DMSO) or the indicated ligand for 20 to 22 h. Cells were then lysed with 100 μl of 1× reporter lysis buffer, and 30 μl of cell extract was used for luciferase and […] assays. A LumiCount™ luminometer (PerkinElmer Life and Analytical Sciences) was used to quantitate luciferase and β-Gal activities, and the luciferase activities were normalized to β-Gal activity. Results are expressed as means±S.E. for at least three replicate determinations for each treatment group

Take `COC(=O)[C@@]1(C)CC[C@]2(C)CC[C@]3(C)C(=CC(=O)[C@@H]4[C@@]5(C)C=C(C#N)C(=O)C(C)(C)[C@@H]5CC[C@]43C)[C@@H]2C1` [β-CDODA-Me, Methyl 2-cyano-3,11-dioxo-18β-oleana-1,12-dien-30-oate]: the melting point is 243 to 245 °C. In addition, the “transactivation of PSA-Luc construct” value in the series on PSA promoter is on record as “inhibited transactivation”. For the same compound, in series [1], the Sp protein expression result is reported as “decreases Sp protein expression”, the VEGF protein expression entry is recorded as “decreased VEGF protein expression” and the “decrease of Sp protein expression with T007 or proteasome inhibitors” value is “not reversed”. This compound also came in with an IC50 in series [2] of 1000 to 2500 nM. Besides, the KLF4 induction entry in the series with SW480 cells (SW480, 0.5-7.5 μM) is recorded as “induction”. Further, in the series with SW480 cells (SW480, 24 hr), the NAG-1 induction entry is reported as “not induced” and the “induction of GRP78 protein (ER stress)” value is on record as “not observed”. In addition, in the series on SW480 cells (SW480, 24 hr, 10 μM T007), the “KLF-4 induction after cotreatment with T007” value is “blocks this induction response” and the “down regulation of cyclin D1, p27 or PARP cleavage after cotreatment with T007” value is on record as “does not affect”. Further, in the series on SW480 cells (SW480, 24 hr, 0.5-5.0 μM), the “PARP cleavage (indicator of apoptosis)” value is recorded as “only observed at higher concentrations” and the p27 protein entry is on record as “dose-dependent increase”. Moreover, the “Cyclin D1 and p21 protein expression” value in the series on SW480 cells (SW480, 24 hr, 0.5 or 1 μM) is given as “unchanged”. In addition, in the series on SW480 cells (SW480, 24 hr, 2.5 and 5.0 μM), the “Cyclin D1 and p21 protein expression” value is “decreased”. Besides, the caveolin-1 protein expression result in the series on SW480 cells (SW480, treatment for 3 days) is “did not affect expression of caveolin-1”. Also, the IC50 with SW480 colon cancer cells fell in the range of 200 to 500 nM. The “PPARγ transactivation (GAL4-PPARγ/GAL4-Luc)” value with PPARγ is “induced transactivation”.
